Test results reported in patent US20260317324A1, “BIFUNCTIONAL COMPOUNDS FOR DEGRADING BRAF VIA UBIQUITIN PROTEOSOME PATHWAY” (Nurix Therapeutics, Inc., priority 2023, published 2026).

What was measured:
Assay type in all cases: cell-based
BRAF V600E = target: T1, BRAF V600E (Homo sapiens, UniProt P15056, V600E); test: BRAF HiBiT degradation assay, C-terminal HiBiT-tagged BRAF V600E A375 cells (clone 1F10), Nano-Glo HiBiT Lytic assay; conditions: for Dmax: A-375
T1 construct: endogenous C-terminal HiBiT fusion tag on BRAF V600E allele; endogenous in cells; host or cells: A375 clone 1F10 (CRISPR-Cas9 knock-in of the HiBiT tag; parental A375 from ATCC)
Method in brief: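 Using CRISPR-engineered A375 cells that carry a C-terminal HiBiT tag on endogenous BRAF V600E, remaining protein was quantified by lytic luminescence relative to DMSO-treated cells, with wildtype A375 as the background control. DC50 denotes the concentration giving 50% degradation.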

BRAF G466V = target: T2, BRAF G466V (Homo sapiens, UniProt P15056, G466V); test: BRAF HiBiT degradation assay, C-terminal HiBiT-tagged BRAF G466V overexpressed in HCT-116 BRAF−/− cells (clone 8), Nano-Glo HiBiT Lytic assay
T2 construct: Horizon Discovery (HCT-116 BRAF−/− cells); host or cells: HCT-116 BRAF−/− cells, clone 8, lentiviral transduction
Method in brief: (§1)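 Degradation assay in HCT-116 BRAF−/− cells carrying lentiviral HiBiT-tagged mutant BRAF. The readout is % protein remaining across 1 μM to 0.01 nM compound, and DC50 marks 50% remaining.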

BRAF G469A = target: T3, BRAF G469A (Homo sapiens, UniProt P15056, G469A); test: BRAF HiBiT degradation assay, C-terminal HiBiT-tagged BRAF G469A overexpressed in HCT-116 BRAF−/− cells (clone 34), Nano-Glo HiBiT Lytic assay
T3 construct: Horizon Discovery (HCT-116 BRAF−/− cells); host or cells: HCT-116 BRAF−/− cells, clone 34, lentiviral transduction
Method in brief: as §1

BRAF D594G = target: T4, BRAF D594G (Homo sapiens, UniProt P15056, D594G); test: BRAF HiBiT degradation assay, C-terminal HiBiT-tagged BRAF D594G overexpressed in HCT-116 BRAF−/− cells (clone 63), Nano-Glo HiBiT Lytic assay
T4 construct: Horizon Discovery (HCT-116 BRAF−/− cells); host or cells: HCT-116 BRAF−/− cells, clone 63, lentiviral transduction
Method in brief: as §1

[1] = A375 (BRAF V600E), DC50 at 50%: fitted conc. at Y=50
[2] = A375 (BRAF V600E), percentage protein degraded at maximal compound effect relative to DMSO
[3] = BRAF G466V, DC50 at 50%: fitted conc. at Y=50
[4] = HCT-116, BRAF G466V, percentage protein degraded at maximal compound effect relative to DMSO
[5] = Class 2, BRAF G469A, DC50 at 50%: fitted conc. at Y=50
[6] = HCT-116, Class 2, BRAF G469A, percentage protein degraded at maximal compound effect relative to DMSO
[7] = BRAF D594G, DC50 at 50%: fitted conc. at Y=50
[8] = HCT-116, BRAF D594G, percentage protein degraded at maximal compound effect relative to DMSO
[9] = A375 (BRAF V600E, Class 1), DC50 at 50% degradation
[10] = A375 (BRAF V600E, Class 1), observed Dmax, % protein degraded relative to DMSO control
[11] = BRAF G466V (Class 3), HCT-116 BRAF−/− cells, DC50 at 50% degradation
[12] = BRAF G466V (Class 3), HCT-116 BRAF−/− cells, observed Dmax relative to DMSO control
[13] = BRAF G469A (Class 2), HCT-116 BRAF−/− cells, DC50 at 50% degradation
[14] = BRAF G469A (Class 2), HCT-116 BRAF−/− cells, observed Dmax relative to DMSO control
[15] = BRAF D594G (Class 3), HCT-116 BRAF−/− cells, DC50 at 50% degradation
[16] = BRAF D594G (Class 3), HCT-116 BRAF−/− cells, observed Dmax relative to DMSO control

T1 sequence (P15056 whole entry V600E, the tested form may be a part): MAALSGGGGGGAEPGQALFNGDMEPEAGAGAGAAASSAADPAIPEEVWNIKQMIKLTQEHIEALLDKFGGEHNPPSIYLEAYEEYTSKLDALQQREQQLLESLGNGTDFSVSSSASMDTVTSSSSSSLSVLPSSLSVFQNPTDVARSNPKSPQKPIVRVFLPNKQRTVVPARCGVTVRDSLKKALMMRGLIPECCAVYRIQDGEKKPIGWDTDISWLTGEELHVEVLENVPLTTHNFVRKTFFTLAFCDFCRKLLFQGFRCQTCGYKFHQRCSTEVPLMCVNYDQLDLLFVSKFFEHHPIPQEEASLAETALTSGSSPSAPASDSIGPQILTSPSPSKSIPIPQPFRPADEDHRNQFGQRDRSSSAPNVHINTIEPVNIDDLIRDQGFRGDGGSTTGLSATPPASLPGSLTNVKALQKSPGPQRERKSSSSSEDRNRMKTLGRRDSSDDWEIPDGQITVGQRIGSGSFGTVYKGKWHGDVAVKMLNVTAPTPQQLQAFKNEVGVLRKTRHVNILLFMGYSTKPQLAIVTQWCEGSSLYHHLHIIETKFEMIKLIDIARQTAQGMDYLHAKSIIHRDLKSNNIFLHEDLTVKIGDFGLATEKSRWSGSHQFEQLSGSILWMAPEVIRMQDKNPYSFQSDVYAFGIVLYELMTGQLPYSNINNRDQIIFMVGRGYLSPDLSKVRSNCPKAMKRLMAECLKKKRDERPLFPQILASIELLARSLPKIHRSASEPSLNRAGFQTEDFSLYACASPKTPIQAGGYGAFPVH
T3 sequence (P15056 whole entry G469A): as the sequence (P15056 whole entry V600E, the tested form may be a part) above, with G469A, E600V counted along it
T2 sequence (P15056 whole entry G466V): as the sequence (P15056 whole entry V600E, the tested form may be a part) above, with G466V, E600V counted along it
T4 sequence (P15056 whole entry D594G): as the sequence (P15056 whole entry V600E, the tested form may be a part) above, with D594G, E600V counted along it

Compound	DC50 (BRAF V600E; [1]) [nM]	Dmax (BRAF V600E; [2]) [%]	DC50 (BRAF G466V; [3]) [nM]	Dmax (BRAF G466V; [4]) [%]	DC50 (BRAF G469A; [5]) [nM]	Dmax (BRAF G469A; [6]) [%]	DC50 (BRAF D594G; [7]) [nM]	Dmax (BRAF D594G; [8]) [%]	DC50 (BRAF V600E; [9]) [nM]	Dmax (BRAF V600E; [10]) [%]	DC50 (BRAF G466V; [11]) [nM]	Dmax (BRAF G466V; [12]) [%]	DC50 (BRAF G469A; [13]) [nM]	Dmax (BRAF G469A; [14]) [%]	DC50 (BRAF D594G; [15]) [nM]	Dmax (BRAF D594G; [16]) [%]
CCCS(=O)(=O)Nc1cccc(-c2nc(C(C)(C)C)sc2-c2ccnc(Nc3cnn(CC4CCN(C(=O)[C@H]5CC[C@H](Oc6ccc(C7CCC(=O)NC7=O)cn6)CC5)CC4)c3)n2)c1F (mixture of isomers) [Compound 117, N-{3-[2-tert-butyl-5-(2-{[1-({1-[(1r,4r)-4-({5-[(3RS)-2,6-dioxopiperidin-3-yl]pyridin-2-yl}oxy)cyclohexanecarbonyl]piperidin-4-yl}methyl)-1H-pyrazol-4-yl]amino}pyrimidin-4-yl)-1,3-thiazol-4-yl]-2-fluorophenyl}propane-1-sulfonamide]	< 10	> 70	> 500	< 30	> 500	< 30	> 500	30 to 70	–	–	–	–	–	–	–	–
CCN(C)S(=O)(=O)Nc1cccc(-c2nc(C)sc2-c2ccnc(Nc3ccc(N4CCN(CC5CCN(c6ccc(C7CCC(=O)NC7=O)cn6)CC5)CC4)cn3)n2)c1F (racemic) [Compound 43, Rac-(3S)-3-{6-[4-({4-[6-({4-[4-(3-{[ethyl(methyl)sulfamoyl]amino}-2-fluorophenyl)-2-methyl-1,3-thiazol-5-yl]pyrimidin-2-yl}amino)pyridin-3-yl]piperazin-1-yl}methyl)piperidin-1-yl]pyridin-3-yl}piperidine-2,6-dione]	< 10	> 70	10 to 50	30 to 70	10 to 50	30 to 70	< 10	30 to 70	–	–	–	–	–	–	–	–
O=C1CCN(c2ccc(N3CCC(CN4CCN(c5ccc(-n6cc(-c7cc(Cl)cc(NS(=O)(=O)N8CCCC8)c7F)c(-c7ccncc7)n6)cc5)CC4)CC3)nc2)C(=O)N1 [Compound 355, N-[5-chloro-3-(1-{4-[4-({1-[5-(2,4-dioxo-1,3-diazinan-1-yl)pyridin-2-yl]piperidin-4-yl}methyl)piperazin-1-yl]phenyl}-3-(pyridin-4-yl)-1H-pyrazol-4-yl)-2-fluorophenyl]pyrrolidine-1-sulfonamide]	–	–	–	–	–	–	–	–	< 10	> 70	< 10	> 70	10 to 50	30 to 70	< 10	30 to 70
CCN(C)S(=O)(=O)Nc1cccc(-c2nc(C(C)(C)C)sc2-c2ccnc(Nc3ccc(N4CCN(CC5CCN(c6ccc([C@@H]7CCC(=O)NC7=O)cc6)CC5)CC4)cn3)n2)c1F [Compound 127, (3S)-3-{4-[4-({4-[6-({4-[2-tert-butyl-4-(3-{[ethyl(methyl)sulfamoyl]amino}-2-fluorophenyl)-1,3-thiazol-5-yl]pyrimidin-2-yl}amino)pyridin-3-yl]piperazin-1-yl}methyl)piperidin-1-yl]phenyl}piperidine-2,6-dione]	10 to 50	> 70	10 to 50	30 to 70	10 to 50	30 to 70	< 10	30 to 70	–	–	–	–	–	–	–	–
O=C1CC[C@H](c2ccc(N3CCC(CN4CCN(c5ccc(-n6cc(-c7cc(Cl)cc(NS(=O)(=O)N8CC[C@@H](F)C8)c7F)c(-c7ccncc7)n6)nc5)CC4)CC3)nc2)C(=O)N1 [Compound 297, (3R)—N-{5-chloro-3-[1-(5-{4-[(1-{5-[(3R)-2,6-dioxopiperidin-3-yl]pyridin-2-yl}piperidin-4-yl)methyl]piperazin-1-yl}pyridin-2-yl)-3-(pyridin-4-yl)-1H-pyrazol-4-yl]-2-fluorophenyl}-3-fluoropyrrolidine-1-sulfonamide]	–	–	–	–	–	–	–	–	< 10	> 70	< 10	> 70	< 10	> 70	< 10	> 70
CCCS(=O)(=O)Nc1cccc(-c2nc(C(C)(C)C)sc2-c2ccnc(Nc3cnn(C4CCN(CC5CCN(c6ccc7c(=O)n(C8CCC(=O)NC8=O)ccc7c6)CC5)CC4)c3)n2)c1F (racemic) [Compound 80, Rac-N-[3-(2-tert-butyl-5-{2-[(1-f{1-[(1-{2-[(3R)-2,6-dioxopiperidin-3-yl]-1-oxo-1,2-dihydroisoquinolin-6-yl}piperidin-4-yl)methyl]piperidin-4-yl}-1H-pyrazol-4-yl)amino]pyrimidin-4-yl}-1,3-thiazol-4-yl)-2-fluorophenyl]propane-1-sulfonamide]	< 10	> 70	> 500	30 to 70	> 500	< 30	> 500	30 to 70	–	–	–	–	–	–	–	–
CCCS(=O)(=O)Nc1cccc(-c2cn(-c3ccc(C4CCN(CC5CCN(c6ccc(C7CCC(=O)NC7=O)cc6F)CC5)CC4)cc3)nc2-c2ccncc2)c1F (racemic) [Compound 22, Rac-N-{3-[1-(4-{1-[(1-{4-[(3R)-2,6-dioxopiperidin-3-yl]-2-fluorophenyl}piperidin-4-yl)methyl]piperidin-4-yl}phenyl)-3-(pyridin-4-yl)-1H-pyrazol-4-yl]-2-fluorophenyl}propane-1-sulfonamide]	10 to 50	> 70	50 to 500	30 to 70	> 500	< 30	> 500	30 to 70	–	–	–	–	–	–	–	–
O=C1CCN(c2ccc(N3CCC(CN4CCN(c5ccc(-n6cc(-c7cc(Cl)cc(NS(=O)(=O)N8CCCC8)c7F)c(-c7ccncc7)n6)cc5)CC4)CC3)cc2)C(=O)N1 [Compound 283, N-[5-chloro-3-(1-{4-[4-({1-[4-(2,4-dioxo-1,3-diazinan-1-yl)phenyl]piperidin-4-yl}methyl)piperazin-1-yl]phenyl}-3-(pyridin-4-yl)-1H-pyrazol-4-yl)-2-fluorophenyl]pyrrolidine-1-sulfonamide]	–	–	–	–	–	–	–	–	< 10	> 70	< 10	> 70	> 500	30 to 70	< 10	30 to 70
O=C1CCC(c2ccc(N3CCC(CN4CCN(c5ccc(-n6cc(-c7cc(Cl)cc(NS(=O)(=O)N8CCCC8)c7F)c(-c7ccncc7)n6)cc5F)CC4)CC3)nc2)C(=O)N1 (racemic) [Compound 363, Rac-N-{5-chloro-3-[1-(4-{4-[(1-{5-[(3R)-2,6-dioxopiperidin-3-yl]pyridin-2-yl}piperidin-4-yl)methyl]piperazin-1-yl}-3-fluorophenyl)-3-(pyridin-4-yl)-1H-pyrazol-4-yl]-2-fluorophenyl}pyrrolidine-1-sulfonamide]	–	–	–	–	–	–	–	–	< 10	> 70	< 10	> 70	< 10	> 70	< 10	> 70
O=C1CC[C@H](c2ccc(N3CCC(CN4CCN(c5ccc(-n6cc(-c7cc(Cl)cc(NS(=O)(=O)N8CCCC8)c7F)c(-c7ccncc7)n6)nc5)CC4)CC3)nc2)C(=O)N1 [Compound 290, N-{5-chloro-3-[1-(5-{4-[(1-{5-[(3R)-2,6-dioxopiperidin-3-yl]pyridin-2-yl}piperidin-4-yl)methyl]piperazin-1-yl}pyridin-2-yl)-3-(pyridin-4-yl)-1H-pyrazol-4-yl]-2-fluorophenyl}pyrrolidine-1-sulfonamide]	–	–	–	–	–	–	–	–	< 10	> 70	< 10	> 70	< 10	> 70	< 10	> 70
O=C1CC[C@H](c2ccc(N3CCC(CN4CCN(c5ccc(-n6cc(-c7cc(Cl)cc(NS(=O)(=O)N8CC(F)C8)c7F)c(-c7ccncc7)n6)cc5)CC4)CC3)cc2)C(=O)N1 [Compound 333, N-{5-chloro-3-[1-(4-{4-[(1-{4-[(3R)-2,6-dioxopiperidin-3-yl]phenyl}piperidin-4-yl)methyl]piperazin-1-yl}phenyl)-3-(pyridin-4-yl)-1H-pyrazol-4-yl]-2-fluorophenyl}-3-fluoroazetidine-1-sulfonamide]	–	–	–	–	–	–	–	–	< 10	> 70	< 10	> 70	< 10	30 to 70	< 10	30 to 70
